Legend:
type I HLA (HLA-A, B, C) [1] = assay: Type I HLA on surface of tumor cells of T008 PDX mice, flow cytometry MFI; type: in vivo, mouse; settings: 60 mg/kg/day i.p. q.d. 30 days, vs PBS control
Method: (§1) PDX mouse models derived from tissue T008 and tissue T018 were established according to the method of example 3. The model animals were grouped according to the following Table 7 in which mice were treated with hydroxychloroquine alone. Hydroxychloroquine used in the experiment was purchased from MCE (Cat. No.: HY-W031727).
(§2) Mice were sacrificed 30 days after treatment, and tumor tissues were taken out and digested into a single-cell suspension with dispase. After staining with a general HLA-A, B, C flow cytometric antibody (Biolegend, PE-anti-human HLA-A, B, C Antibody Cat. NO. 311406), the phenotypes and fluorescence intensity (MFI) were measured by flow cytometry, and the MFI values of different groups of HLA-type I positive cells were counted and compared.

type I HLA (HLA-A, B, C) [2] = assay: Type I HLA on surface of tumor cells of T018 PDX mice, flow cytometry MFI; type: in vivo, mouse; settings: 60 mg/kg/day i.p. q.d. 30 days, vs PBS control
Method: as §1, §2

[3] = tested on: primary tumor cells such as pancreatic tumor cells; assay: Killing effect of TILs on primary tumor cells treated with hydroxychloroquine; type: cell-based, human
Method: In a specific embodiment, TILs are obtained from tumor samples of pancreatic cancer patients with reference to the method disclosed in CN110785486A (which is incorporated herein by reference in its entirety). Primary tumor cells such as pancreatic tumor cells are treated with the TILs alone (control group) or in combination with a compound of Formula (I) (e.g., hydroxychloroquine) (compound group). The cells of the compound group are treated with different concentrations of the compound of Formula (I) (e.g., hydroxychloroquine) for more than 12 hours (e.g., 24 hours). Under different effect-to-target ratios were the killing effects of TILs on target cells in the control group and the compound group detected.

HLAs = assay: HLA expression (positive rate) of tumor cells treated with hydroxychloroquine; type: cell-based, human; settings: compound group vs control group

## CCN(CCO)CCCC(C)Nc1ccnc2cc(Cl)ccc12 (centres unmarked) [hydroxychloroquine]
Type I HLA (HLA-A, B, C) [1]
  expression levels of type I HLA on the surface of tumor cells: significantly increased
Type I HLA (HLA-A, B, C) [2]
  expression levels of type I HLA on the surface of tumor cells: significantly increased
[3]; compound group vs control group (TILs alone)
  concentration of hydroxychloroquine at which the effect on TIL killing is more clear: above 20 μM
[3]; primary tumor cells treated with hydroxychloroquine for more than 12 hours (e.g., 24 hours), different effect-to-target ratios, vs TILs alone
  killing effects of TILs on target cells: more effectively killed by TILs
HLAs
  positive rate of the cells (HLA expression): significantly higher

Reference: patent US20240238271A1, “PHARMACEUTICAL COMPOSITION FOR ENHANCING CELL KILLING, AND USE THEREOF” (SHANGHAI JUNCELL THERAPEUTICS CO., LTD., priority 2020, published 2024)
